# Test results as given in US20050250801A1, “Method of treating cancer with azaspirane compositions” (priority 2003, published 2005).
# Like-named read-outs stand apart in the source and are kept apart here.
# Assays:
# Type in all cases: cell-based
# [1] = test system: HUVEC; assay: HUVEC growth inhibition assay (crystal violet); conditions: Homo sapiens, 72 hours, read-out: IC50 Concentration, Growth Inhibition
# Description: HUVEC (1.5×10^3) are plated in a 96-well plate in 100 μl of EBM-2 (Clonetic # CC3162). After 24 hours (day 0), a test solution of Compound 1 (100 μl) is added to each well at 2× the desired concentration (5-7 concentration levels) in EBM-2 medium. On day 0, one plate is stained with 0.5% crystal violet in 20% methanol for 10 minutes, rinsed with water, and air-dried. The remaining plates are incubated for 72 hours at 37° C. After 72 hours, plates are stained with 0.5% crystal violet in 20% methanol, rinsed with water and air-dried. The stain is eluted with 1:1 solution of ethanol: 0.1 M sodium citrate (including day 0 plate), and absorbance is measured at 540 nm with an ELISA reader (Dyriatech Laboratories). Day 0 absorbance is subtracted from the 72 hour plates and data is plotted as percentage of control proliferation (vehicle treated cells).
# [2] = test system: BT-549; assay: NCI in vitro SRB assay, Breast Cancer
# Description: (§1) An in vitro assay which tested the ability of N,N,-diethyl-8,8-dipropyl-2-azaspiro[4,5]decane-2-propanamine dimaleate (Compound 1) to inhibit the growth of known cancer cell lines was performed by the National Cancer Institute in accordance with standard procedures. See: Lin, Z. X., Hoult, J. R., and Raman, A. Sulphorhodamine B assay for measuring proliferation of a pigmented melanocyte cell line and its application to the evaluation of crude drugs used in the treatment of vitiligo. J Ethnopharmacol. 66: 141-150, 1999. Briefly, selected tumor cell lines were cultured in media containing five different concentrations of Compound 1. After 48 hours of continuous exposure, a sulforhodamine B (SRB) assay was used to estimate cell viability or growth via optical measurements.
# (§2) From the measurements, the following values were determined: 1) the concentration of Compound 1 at which a tumor cell growth inhibition of 50% (relative to control) occurs (GI50), 2) the concentration of Compound 1 at which no growth occurs (total growth inhibition, TGI), and 3) the concentration of Compound 1 at which the […] (LC 50). […] FIG. 6 illustrates, graphically, tumor cell growth as a function of Compound 1 concentration of the scanned tumor cell lines.
# [3] = test system: HS 578T; assay: NCI in vitro SRB assay, Breast Cancer; conditions: for CC50 / GI50: Homo sapiens; for CC50: Hs-578T
# Description: as §1, §2
# [4] = test system: MCF7; assay: NCI in vitro SRB assay, Breast Cancer; conditions: for CC50 / GI50: Homo sapiens
# Description: as §1, §2
# [5] = test system: MDA-MB-231/ATCC; assay: NCI in vitro SRB assay, Breast Cancer; conditions: for GI50 / CC50: Homo sapiens
# Description: as §1, §2
# [6] = test system: MDA-MB-435; assay: NCI in vitro SRB assay, Breast Cancer; conditions: for CC50 / GI50: Homo sapiens
# Description: as §1, §2
# [7] = test system: NCI/ADR-RES; assay: NCI in vitro SRB assay, Breast Cancer; conditions: for GI50: Homo sapiens
# Description: as §1, §2
# [8] = test system: T-47D; assay: NCI in vitro SRB assay, Breast Cancer
# Description: as §1, §2
# [9] = BT-549, Log10 conc -4.0 Moles/L
# [10] = BT-549, Log10 conc -5.0 Moles/L
# [11] = BT-549, Log10 conc -6.0 Moles/L
# [12] = BT-549, Log10 conc -7.0 Moles/L
# [13] = BT-549, Log10 conc -8.0 Moles/L
# [14] = HS 578T, Log10 conc -4.0 Moles/L
# [15] = HS 578T, Log10 conc -5.0 Moles/L
# [16] = HS 578T, Log10 conc -6.0 Moles/L
# [17] = HS 578T, Log10 conc -7.0 Moles/L
# [18] = HS 578T, Log10 conc -8.0 Moles/L
# [19] = MDA-MB-231/ATCC, Log10 conc -4.0 Moles/L
# [20] = MDA-MB-231/ATCC, Log10 conc -5.0 Moles/L
# [21] = MDA-MB-231/ATCC, Log10 conc -6.0 Moles/L
# [22] = MDA-MB-231/ATCC, Log10 conc -7.0 Moles/L
# [23] = MDA-MB-231/ATCC, Log10 conc -8.0 Moles/L
# [24] = MDA-MB-435, Log10 conc -4.0 Moles/L
# [25] = MDA-MB-435, Log10 conc -5.0 Moles/L
# [26] = MDA-MB-435, Log10 conc -6.0 Moles/L
# [27] = MDA-MB-435, Log10 conc -7.0 Moles/L
# [28] = MDA-MB-435, Log10 conc -8.0 Moles/L
structure (smiles),measurement,setting,value
"CCCC1(CCC)CCC2(CCN(CCCN(CC)CC)C2)CC1.O=C(O)/C=C\C(=O)O.O=C(O)/C=C\C(=O)O [Compound 1, N,N,-diethyl-8,8-dipropyl-2-azaspiro[4,5]decane-2-propanamine dimaleate]",IC50,[1],2050 nM
same,TGI,[2]; BT-549,3230 nM
same,Log10 TGI,[2]; BT-549 (so in the source),−5.39
same,Mean Optical Densities,[2]; [9],0.007
same,Percent Growth,[2]; [9],−98%
same,Mean Optical Densities,[2]; [10],0.027
same,Percent Growth,[2]; [10],−94%
same,Mean Optical Densities,[2]; [11],0.856
same,Percent Growth,[2]; [11],98%
same,Mean Optical Densities,[2]; [12],0.904
same,Percent Growth,[2]; [12],109%
same,Mean Optical Densities,[2]; [13],0.859
same,Percent Growth,[2]; [13],98%
same,CC50,"[2]; Homo sapiens, BT-549, read-out: LC50",5890 nM
same,GI50,"[2]; Homo sapiens, BT-549, read-out: GI50",1770 nM
same,GI50,"[2]; Homo sapiens, BT-549 (so in the source), read-out: Log10 GI50 (converted)",1700 nM
same,TGI,[3]; HS 578T,3960 nM
same,Log10 TGI,[3]; HS 578T (so in the source),−6.09
same,Mean Optical Densities,[3]; [14],0.264
same,Percent Growth,[3]; [14],−62%
same,Mean Optical Densities,[3]; [15],0.269
same,Percent Growth,[3]; [15],−61%
same,Mean Optical Densities,[3]; [16],1.217
same,Percent Growth,[3]; [16],91%
same,Mean Optical Densities,[3]; [17],1.258
same,Percent Growth,[3]; [17],98%
same,Mean Optical Densities,[3]; [18],1.206
same,Percent Growth,[3]; [18],89%
same,CC50,[3]; read-out: LC50,8430 nM
same,CC50,[3]; read-out: Log10 LC50 (converted),6170 nM
same,GI50,"[3]; HS 578T (so in the source), read-out: Log10 GI50 (converted)",269 nM
same,GI50,"[3]; HS 578T, read-out: GI50",1860 nM
same,CC50,"[4]; MCF7, read-out: LC50",5600 nM
same,CC50,"[4]; MCF7, read-out: Log10 LC50 (converted)",5620 nM
same,GI50,"[4]; MCF7, read-out: GI50",1330 nM
same,GI50,"[4]; MCF7, read-out: Log10 GI50 (converted)",1320 nM
same,Log10 TGI,[4]; MCF7,−5.56
same,TGI,[4]; MCF7,2730 nM
same,Mean Optical Densities,"[4]; MCF7, Log10 conc -4.0 Moles/L",0.051
same,Percent Growth,"[4]; MCF7, Log10 conc -4.0 Moles/L",−70%
same,Mean Optical Densities,"[4]; MCF7, Log10 conc -5.0 Moles/L",0.017
same,Percent Growth,"[4]; MCF7, Log10 conc -5.0 Moles/L",−90%
same,Mean Optical Densities,"[4]; MCF7, Log10 conc -6.0 Moles/L",0.996
same,Percent Growth,"[4]; MCF7, Log10 conc -6.0 Moles/L",70%
same,Mean Optical Densities,"[4]; MCF7, Log10 conc -7.0 Moles/L",1.339
same,Percent Growth,"[4]; MCF7, Log10 conc -7.0 Moles/L",99%
same,Mean Optical Densities,"[4]; MCF7, Log10 conc -8.0 Moles/L",1.311
same,Percent Growth,"[4]; MCF7, Log10 conc -8.0 Moles/L",96%
same,GI50,"[5]; MDA-MB-231, MDA-MB-231/ATCC, read-out: GI50",1090 nM
same,GI50,"[5]; MDA-MB-231, line printed ""231/ATCC"" (second line of the wrapped name), read-out: Log10 GI50 (converted)",1860 nM
same,GI50,"[5]; MDA-MB-231, line printed ""MDA-MB-"" (first line of MDA-MB-231/ATCC), read-out: Log10 GI50 (converted)",1100 nM
same,CC50,"[5]; MDA-MB-231, read-out: LC50, MDA-MB-231/ATCC",5180 nM
same,CC50,"[5]; MDA-MB-231, read-out: Log10 LC50, line printed ""231/ATCC"" (second line of the wrapped name) (converted)",8510 nM
same,CC50,"[5]; MDA-MB-231, read-out: Log10 LC50, line printed ""MDA-MB-"" (first line of MDA-MB-231/ATCC) (converted)",5130 nM
same,TGI,[5]; MDA-MB-231/ATCC,2370 nM
same,Mean Optical Densities,[5]; [19],0.038
same,Percent Growth,[5]; [19],−94%
same,Mean Optical Densities,[5]; [20],0.053
same,Percent Growth,[5]; [20],−92%
same,Mean Optical Densities,[5]; [21],0.839
same,Percent Growth,[5]; [21],55%
same,Mean Optical Densities,[5]; [22],0.863
same,Percent Growth,[5]; [22],63%
same,Mean Optical Densities,[5]; [23],0.897
same,Percent Growth,[5]; [23],75%
same,Log10 TGI,"[5]; line printed ""231/ATCC"" (second line of the wrapped name)",−5.40
same,Log10 TGI,"[5]; line printed ""MDA-MB-"" (first line of MDA-MB-231/ATCC)",−5.63
same,CC50,"[6]; MDA-MB-435, read-out: LC50",6190 nM
same,CC50,"[6]; MDA-MB-435, read-out: Log10 LC50 (converted)",5890 nM
same,GI50,"[6]; MDA-MB-435, read-out: GI50",267 nM
same,GI50,"[6]; MDA-MB-435 (so in the source), read-out: Log10 GI50 (converted)",1780 nM
same,TGI,[6]; MDA-MB-435,807 nM
same,Log10 TGI,[6]; MDA-MB-435 (so in the source),−5.49
same,Mean Optical Densities,[6]; [24],0.244
same,Percent Growth,[6]; [24],−58%
same,Mean Optical Densities,[6]; [25],0.230
same,Percent Growth,[6]; [25],−61%
same,Mean Optical Densities,[6]; [26],0.528
same,Percent Growth,[6]; [26],−10%
same,Mean Optical Densities,[6]; [27],1.517
same,Percent Growth,[6]; [27],94%
same,Mean Optical Densities,[6]; [28],1.613
same,Percent Growth,[6]; [28],104%
same,Log10 TGI,[7],−5.40
same,TGI,[7],3950 nM
same,GI50,[7]; read-out: GI50,1830 nM
same,GI50,[7]; read-out: Log10 GI50 (converted),1820 nM
same,Mean Optical Densities,[7]; Log10 conc -4.0 Moles/L,0.081
same,Percent Growth,[7]; Log10 conc -4.0 Moles/L,−85%
same,Mean Optical Densities,[7]; Log10 conc -5.0 Moles/L,0.208
same,Percent Growth,[7]; Log10 conc -5.0 Moles/L,−61%
same,Mean Optical Densities,[7]; Log10 conc -6.0 Moles/L,1.220
same,Percent Growth,[7]; Log10 conc -6.0 Moles/L,89%
same,Mean Optical Densities,[7]; Log10 conc -7.0 Moles/L,1.227
same,Percent Growth,[7]; Log10 conc -7.0 Moles/L,90%
same,Mean Optical Densities,[7]; Log10 conc -8.0 Moles/L,1.254
same,Percent Growth,[7]; Log10 conc -8.0 Moles/L,94%
same,TGI,[8],4110 nM
same,GI50,"[8]; Homo sapiens, T47D",1710 nM
same,Mean Optical Densities,[8]; Log10 conc -4.0 Moles/L,0.207
same,Percent Growth,[8]; Log10 conc -4.0 Moles/L,−38%
same,Mean Optical Densities,[8]; Log10 conc -5.0 Moles/L,0.164
same,Percent Growth,[8]; Log10 conc -5.0 Moles/L,−51%
same,Mean Optical Densities,[8]; Log10 conc -6.0 Moles/L,1.024
same,Percent Growth,[8]; Log10 conc -6.0 Moles/L,81%
same,Mean Optical Densities,[8]; Log10 conc -7.0 Moles/L,1.176
same,Percent Growth,[8]; Log10 conc -7.0 Moles/L,98%
same,Mean Optical Densities,[8]; Log10 conc -8.0 Moles/L,0.837
same,Percent Growth,[8]; Log10 conc -8.0 Moles/L,59%
